Assay results taken from patent US7728142B2, “3-methanesulfonylquinolines as GABAB enhancers” (Hoffmann-La Roche Inc., priority 2005, dated 2010).
Like-named read-outs stand apart in the source and are kept apart here.

Experiments:
[1] = test system: panic attacks and symptoms of anxiety; settings: panic disorder patients; Hamilton, Zung anxiety scales, Katz-R nervousness subscale; cited from earlier work
[2] = test system: prepulse inhibition; settings: rat; cited from earlier work
[3] = test system: symptoms of PTSD; settings: small group of veterans with chronic, combat-related PTSD; cited from earlier work
[4] = PO, cited from earlier work
[5] = in vivo; cited from earlier work
[6] = test system: Gastro-Esophageal Reflux Disease; settings: preclinical; cited from earlier work
[7] = target: GABABR1R2 (Homo sapiens, UniProt O75899+Q9UBS5); settings: absence of GABA; cited from earlier work
Chain of GABABR1R2 (Q9UBS5 20-961): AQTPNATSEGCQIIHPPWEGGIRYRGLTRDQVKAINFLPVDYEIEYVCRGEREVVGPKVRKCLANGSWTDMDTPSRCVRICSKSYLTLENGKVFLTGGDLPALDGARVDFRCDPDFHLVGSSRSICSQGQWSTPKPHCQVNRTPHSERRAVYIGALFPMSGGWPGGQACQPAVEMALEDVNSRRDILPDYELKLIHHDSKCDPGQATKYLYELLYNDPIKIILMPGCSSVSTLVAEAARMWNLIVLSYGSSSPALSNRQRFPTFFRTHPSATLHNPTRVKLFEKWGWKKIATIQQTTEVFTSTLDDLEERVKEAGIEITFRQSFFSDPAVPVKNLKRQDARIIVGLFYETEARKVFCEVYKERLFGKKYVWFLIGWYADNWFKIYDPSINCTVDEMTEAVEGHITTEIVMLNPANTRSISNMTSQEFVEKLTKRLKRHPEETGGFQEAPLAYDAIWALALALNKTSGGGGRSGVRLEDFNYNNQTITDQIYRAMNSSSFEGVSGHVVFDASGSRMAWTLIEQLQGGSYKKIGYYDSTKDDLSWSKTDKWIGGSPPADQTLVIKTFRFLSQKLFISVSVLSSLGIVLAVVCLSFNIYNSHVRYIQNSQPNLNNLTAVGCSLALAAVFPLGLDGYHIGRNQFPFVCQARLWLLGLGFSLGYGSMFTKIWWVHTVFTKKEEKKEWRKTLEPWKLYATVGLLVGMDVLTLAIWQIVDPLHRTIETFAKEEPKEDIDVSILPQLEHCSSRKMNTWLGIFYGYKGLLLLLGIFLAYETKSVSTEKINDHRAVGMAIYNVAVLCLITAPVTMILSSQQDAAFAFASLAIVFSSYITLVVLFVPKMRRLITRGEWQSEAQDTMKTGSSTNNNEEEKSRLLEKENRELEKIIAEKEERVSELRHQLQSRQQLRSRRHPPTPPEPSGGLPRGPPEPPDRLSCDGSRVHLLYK
Chain of GABABR1R2 (O75899 42-941): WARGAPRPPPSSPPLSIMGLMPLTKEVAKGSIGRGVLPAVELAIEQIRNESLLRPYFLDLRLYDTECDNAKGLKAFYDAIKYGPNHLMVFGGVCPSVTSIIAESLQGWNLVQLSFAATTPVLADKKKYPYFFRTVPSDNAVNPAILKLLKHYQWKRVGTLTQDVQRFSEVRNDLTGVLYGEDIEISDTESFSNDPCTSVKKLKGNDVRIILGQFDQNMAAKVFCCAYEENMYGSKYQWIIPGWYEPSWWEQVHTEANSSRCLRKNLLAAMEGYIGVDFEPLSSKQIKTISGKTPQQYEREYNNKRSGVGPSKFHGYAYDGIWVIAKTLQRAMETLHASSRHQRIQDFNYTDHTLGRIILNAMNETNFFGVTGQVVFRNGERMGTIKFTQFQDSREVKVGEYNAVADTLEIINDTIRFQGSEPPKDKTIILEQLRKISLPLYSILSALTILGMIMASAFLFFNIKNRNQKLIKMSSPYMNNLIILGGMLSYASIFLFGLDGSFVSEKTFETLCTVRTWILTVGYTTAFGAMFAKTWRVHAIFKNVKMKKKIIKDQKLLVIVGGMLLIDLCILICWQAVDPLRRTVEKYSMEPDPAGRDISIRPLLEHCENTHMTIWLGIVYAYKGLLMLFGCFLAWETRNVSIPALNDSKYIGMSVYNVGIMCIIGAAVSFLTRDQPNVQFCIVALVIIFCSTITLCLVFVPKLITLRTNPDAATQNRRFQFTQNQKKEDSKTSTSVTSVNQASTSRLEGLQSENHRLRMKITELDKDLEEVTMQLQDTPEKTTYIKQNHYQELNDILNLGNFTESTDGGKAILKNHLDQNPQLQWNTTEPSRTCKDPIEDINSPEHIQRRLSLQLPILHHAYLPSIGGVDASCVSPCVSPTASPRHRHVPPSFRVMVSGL

[8] = test system: cocaine self-administration; settings: rats; cited from earlier work
[9] = target: T1, human GABABR1aR2a (Homo sapiens, UniProt O75899+Q9UBS5); experiment: GABA shift assay (Ca2+ mobilization, GABA curves with and without 10 μM enhancer); type: cell-based; settings: CHO-GABABR1aR2a-Gα16 cell
T1 construct: expressed in transfected cells
T1 sequence (Q9UBS5 15-961 limits assumed): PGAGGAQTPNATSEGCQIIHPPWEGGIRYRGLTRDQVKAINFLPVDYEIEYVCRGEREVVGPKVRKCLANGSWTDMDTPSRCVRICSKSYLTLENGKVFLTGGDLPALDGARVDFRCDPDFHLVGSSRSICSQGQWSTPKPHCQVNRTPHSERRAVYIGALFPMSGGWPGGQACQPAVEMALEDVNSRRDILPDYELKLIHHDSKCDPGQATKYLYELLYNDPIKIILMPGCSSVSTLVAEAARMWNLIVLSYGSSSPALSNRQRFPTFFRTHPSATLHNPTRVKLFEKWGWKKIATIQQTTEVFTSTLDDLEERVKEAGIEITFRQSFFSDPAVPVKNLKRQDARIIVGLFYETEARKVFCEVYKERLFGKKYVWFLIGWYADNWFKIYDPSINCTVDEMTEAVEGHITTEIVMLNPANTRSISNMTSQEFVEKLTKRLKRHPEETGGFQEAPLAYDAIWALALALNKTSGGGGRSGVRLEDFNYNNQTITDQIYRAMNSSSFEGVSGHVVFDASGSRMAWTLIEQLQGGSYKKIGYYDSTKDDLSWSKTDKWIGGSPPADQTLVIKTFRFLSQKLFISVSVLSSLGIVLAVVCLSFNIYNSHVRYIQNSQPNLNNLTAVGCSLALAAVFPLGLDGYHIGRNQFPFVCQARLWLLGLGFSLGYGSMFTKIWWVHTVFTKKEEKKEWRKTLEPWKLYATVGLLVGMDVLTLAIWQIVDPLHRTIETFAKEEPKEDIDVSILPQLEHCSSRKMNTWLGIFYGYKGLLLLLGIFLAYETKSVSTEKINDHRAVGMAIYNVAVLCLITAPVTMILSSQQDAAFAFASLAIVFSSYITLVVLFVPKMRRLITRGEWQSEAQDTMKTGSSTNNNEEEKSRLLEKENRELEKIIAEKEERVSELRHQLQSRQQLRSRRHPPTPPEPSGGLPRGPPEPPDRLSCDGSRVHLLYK
T1 sequence (O75899 42-941): as the sequence (O75899 42-941) above
Protocol: (§1) Intracellular Ca^2+ Mobilization Assay
(§2) Chinese Hamster Ovary (CHO) cells stably expressing human GABABR1aR2a and Gα16 were seeded at 5×10^4 cells/well in the poly-D-lysine treated, 96-well, black/clear-bottomed plates (BD Biosciences, Palo Alto, Calif.). 24 h later, the cells were loaded for 90 min at 37° C. with 4 μM Flou-4 acetoxymethyl ester (Catalog No. F-14202, Molecular Probes, Eugene, Oreg.) in loading buffer (1×HBSS, 20 mM HEPES, 2.5 mM Probenecid). Hanks' Balanced Salt Solution (HBSS) (10×) (catalog No. 14065-049) and HEPES (1M) (catalog No. 15630-056) were purchased from Invitrogen, Carlsbad, Calif. Probenecid (250 mM) (catalog No. P8761) was from Sigma, Buchs, Switzerland. The cells were washed five times with loading buffer to remove excess dye and intracellular calcium mobilization, [Ca^2+] was measured using a Fluorometric Imaging Plate Reader (FLIPR, Molecular Devices, Menlo Park, Calif.) as described previously (Porter et al., Br. J. Pharmacol., 128, 13-20, 1999). The enhancers were applied 15 min before the application of the GABA. For GABA shift assay, concentration-response curves of GABA (0.0003-30 μM) were determined in the absence and presence of 10 μM enhancer. The GABA-shift is defined as Log [EC50 (GABA+10 μM enhancer)/EC50 (GABA alone)]. The % maximum enhancing effect (% Emax) and potency (EC50 value) of each enhancer was determined from concentration-response curve of the enhancer (0.001-30 μM) in the presence of 10 nM GABA (EC10). Responses were measured as peak increase in fluorescence minus basal, normalized to the maximal stimulatory effect induced by 10 μM GABA alone (considered 100%) and 10 nM GABA alone (considered 0%). The data were fitted with the equation Y=100+(Max−100)/(1+(EC50/[drug])^n) where Max is the maximum effect, EC50 the concentration eliciting a half-maximum effect and n the Hill slope.

[10] = target: T1, human GABABR1aR2a; experiment: Intracellular Ca2+ mobilization assay (FLIPR), enhancer concentration-response in presence of 10 nM GABA; type: cell-based; settings: CHO-GABABR1aR2a-Gα16 cell; for Emax: enhancer 0.001-30 μM in presence of 10 nM GABA (EC10), read-out: Emax (%) at 10 nM GABA alone = 0% 10 μM GABA alone = 100%; for EC50: in presence of 10 nM GABA (EC10)
Protocol: as §1, §2

[11] = test system: cognition performance; settings: passive avoidance, mice and rats; cited from earlier work
[12] = test system: anxiety; settings: elevated plus maze (rat), elevated zero maze (mice and rats), stress-induced hyperthermia (mice); cited from earlier work
[13] = test system: anxiety; settings: cited from earlier work

Compound	GABA shift Log [EC50(GABA + 10 μM cp)/EC50(GABA alone)] [9]	Emax [10] [%]	EC50 [10] [µM]	other results
NCC(CC(=O)O)c1ccc(Cl)cc1 (stereo not drawn) [Baclofen, β-chlorophenyl GABA]	–	–	–	reduction of number of panic attacks and symptoms of anxiety [1]: significantly effective; reversal of reduction in prepulse inhibition induced by dizocilpine [2]: able to reverse the reduction in prepulse inhibition; treatment of PTSD [3]: effective and well-tolerated treatment; effect on spontaneous locomotor activity, rotarod, body temperature and traction test ([4]; 2.5-15 mg/kg): showed these side effects; blood-brain-barrier penetration [5]: poor blood-brain-barrier penetration
CC(C)(CO)Cc1cc(C(C)(C)C)c(O)c(C(C)(C)C)c1 [CGP7930, 2,6-di-tert-butyl-4-(3-hydroxy-2,2-dimethyl-propyl)-phenol]	–	–	–	efficacy in GERD [6]: found to be effective; effect on their own at GABAB receptors [7]: no effect on their own; decrease of cocaine self-administration [8]: effective at decreasing cocaine self-administration
CC(C)(C=O)Cc1cc(C(C)(C)C)c(O)c(C(C)(C)C)c1 [CGP13501]	–	–	–	effect on their own at GABAB receptors [7]: no effect on their own
Cc1nc2ccc(OC(F)(F)F)cc2c(-c2ccccc2)c1S(C)(=O)=O [Example 1, 3-Methanesulfonyl-2-methyl-4-phenyl-6-trifluoromethoxy-quinoline]	−0.7	56	0.85	–
CSc1nc(NC2CCCC2)c([N+](=O)[O-])c(NC2CCCC2)n1 [GS39783, N,N_-dicyclopentyl-2-methylsulfanyl-5-nitro-pyrimidine-4,6-diamine]	–	–	–	effect on cognition performance [11]: did not have any effect; effect on spontaneous locomotor activity, rotarod, body temperature and traction test ([4]; 0.1-200 mg/kg): had no effect; anxiolytic-like effects [12]: exhibited anxiolytic-like effects; tolerance after chronic treatment ([13]; 21 days, 10 mg/kg, P.O., once daily): No tolerance; anxiolytic effects in light-dark box and elevated zero maze ([13]; acute and chronic treatment): anxiolytic effects; decrease of cocaine self-administration [8]: effective at decreasing cocaine self-administration

Now from value to molecule, other results behind:

GABA shift Log [EC50(GABA + 10 μM cp)/EC50(GABA alone)] [9]	Emax [10] [%]	EC50 [10] [µM]	Compound	other results
−0.4	30	2.1	Cc1nc2ccc(I)cc2c(N2CCOCC2)c1S(C)(=O)=O [Example 5, 6-Iodo-3-methanesulfonyl-2-methyl-4-morpholin-4-yl-quinoline]	–
−1.2	48	0.6	Cc1nc2ccc(I)cc2c(N2CCCCC2)c1S(C)(=O)=O [Example 9, 6-Iodo-3-methanesulfonyl-2-methyl-4-piperidin-1-yl-quinoline]	–
−0.8	26	0.8	Cc1nc2ccc(I)cc2c(N2CCC[C@@H](O)C2)c1S(C)(=O)=O [Example 11, (R)-1-(6-Iodo-3-methanesulfonyl-2-methyl-quinolin-4-yl)-piperidin-3-ol]	–
−0.45	37	2.1	Cc1nc2ccc(Br)cc2c(-c2ccc(F)cc2)c1S(C)(=O)=O [Example 14, 6-Bromo-4-(4-fluoro-phenyl)-3-methanesulfonyl-2-methyl-quinoline]	–
